Literature values, collected in US20100003250A1, “(2-ARYL-7H-PYRROLO[2,3-D]PYRIMIDIN-4-YL)MORPHOLINE COMPOUNDS, THEIR USE AS MTOR KINASE AND PI3 KINASE INHIBITORS, AND THEIR SYNTHESES” (Wyeth, priority 2008, published 2010).
pIC50: −log10 of the molar value.

Assays:
[1] = tested on: human tumor xenograft models; conditions: cited from earlier work
[2] = tested on: acute lymphoblastic leukemia; conditions: in vivo; cited from earlier work
[3] = target: mTOR (Homo sapiens, UniProt P42345); conditions: read-out: mTOR IC50; mTOR complexes / mTOR enzymes; cited from earlier work

For Oc1cccc(-c2nc(N3CCOCC3)c3oc4ncccc4c3n2)c1 [PI103, 3-(4-(4-morpholinyl)pyrido[3′,2′:4,5]furo[3,2-d]pyrimidin-2-yl)phenol], which “activity in human tumor xenograft models” value ([1]; I.P. dosing in mice, U87MG, PC3, MDA-MB-468, MDA-MB-435, HCT 116, SKOV3, IGROV-1) is on record?
The value was “demonstrated activity”.

With CO[C@H]1C[C@@H]2CC[C@@H](C)[C@@](O)(O2)C(=O)C(=O)N2CCCC[C@H]2C(=O)O[C@H]([C@H](C)C[C@@H]2CC[C@@H](OC(=O)C(C)(CO)CO)[C@H](OC)C2)CC(=O)[C@H](C)/C=C(\C)[C@@H](O)[C@@H](OC)C(=O)[C@H](C)C[C@H](C)/C=C/C=C/C=C/1C [Torisel] as the compound, how does the “activity in NOS/SCID xenograft mouse model of acute lymphoblastic leukemia” value [2] read?
The value was “active”.

With FC(F)c1nc2ccccc2n1-c1nc(N2CCOCC2)nc(N2CCOCC2)n1 [ZSTK474, 2-(2-difluoromethylbenzoimidazol-1-yl)-4,6-dimorpholino-1,3,5-triazine] as the compound, how does the pIC50 [3] read?
The pIC50 was < 5.00.

What about the “tumor growth in mouse human xenograft cancer models” value ([1]; chronic oral administration, 400 mg/kg, A549, PC-3, WiDr) of the same compound?
Its value is “completely inhibited growth”.
